{
  "source": "patent US20220160842A1",
  "about": "“METHOD OF TREATING INFECTIVE ENDOCARDITIS” (priority 2019, published 2022)",
  "key": {"S. lugdunensis": {"system": "S. lugdunensis", "assay": "MIC by broth microdilution", "format": "cell-based, Staphylococcus lugdunensis", "settings": "S. lugdunensis, N=49", "method": "(§1) Minimal inhibitory concentrations (MICs) of exebacase against staphylococci were determined by broth microdilution (BMD) using a nonstandard antimicrobial susceptibility testing (AST) medium comprised of cation-adjusted Mueller Hinton broth (caMHB) supplemented with horse serum (Sigma Aldrich) and dithiothreitol (DTT; Sigma Aldrich) to final concentrations of 25% and 0.5 mM, respectively. This medium, referred to as caMHB-HSD, is approved for use in exebacase AST by the Clinical and Laboratory Standards Institute (CLSI) (CLSI. 2017, Jan. 16-17. AST Subcommittee Working Group Meetings and Plenary. AST Meeting Files & Resources, clsi.org/education/microbiology/ast/ast-meeting-files-resources/. Additional supplementation with 2.5% lysed red blood cells (Remel™, ThermoFisher) was included for analyses of streptococcal isolates, as recommended by CLSI. See CLSI, 2015. Methods for Dilution Antimicrobial Susceptibility Tests for Bacteria That Grow Aerobically, 10th Edition. Clinical and Laboratory Standards Institute, Wayne, Pa.\n(§2) Daptomycin (Sigma Aldrich) and vancomycin hydrochloride (Sigma Aldrich) were tested following the reference BMD method for each. See CLSI. 2015. Methods for Dilution Antimicrobial Susceptibility Tests for Bacteria That Grow Aerobically, 10th Edition. Clinical and Laboratory Standards Institute, Wayne, Pa."}, "S. haemolyticus": {"system": "S. haemolyticus", "assay": "MIC by broth microdilution", "format": "cell-based, Staphylococcus haemolyticus", "settings": "S. haemolyticus, N=36", "method": "as §1, §2"}, "S. capitis": {"system": "S. capitis", "assay": "MIC by broth microdilution", "format": "cell-based, Staphylococcus capitis", "settings": "S. capitis, N=13", "method": "as §1, §2"}, "S. warneri": {"system": "S. warneri", "assay": "MIC by broth microdilution", "format": "cell-based, Staphylococcus warneri", "settings": "S. warneri, N=23", "method": "as §1, §2"}, "S. gordonii": {"system": "S. gordonii", "assay": "MIC by broth microdilution", "format": "cell-based, Streptococcus gordonii", "settings": "S. gordonii (viridans), N=11", "method": "as §1, §2"}, "S. mutans": {"system": "S. mutans", "assay": "MIC by broth microdilution", "format": "cell-based, Streptococcus mutans", "settings": "S. mutans (viridans), N=22", "method": "as §1, §2"}, "S. oralis": {"system": "S. oralis", "assay": "MIC by broth microdilution", "format": "cell-based, Streptococcus oralis", "settings": "S. oralis (viridans), N=15", "method": "as §1, §2"}, "S. salivarius": {"system": "S. salivarius", "assay": "MIC by broth microdilution", "format": "cell-based, Streptococcus salivarius", "settings": "S. salivarius (viridans), N=12", "method": "as §1, §2"}, "S. sanguinis": {"system": "S. sanguinis", "assay": "MIC by broth microdilution", "format": "cell-based, Streptococcus sanguinis", "settings": "S. sanguinis (viridans), N=15", "method": "as §1, §2"}, "S. gallolyticus": {"system": "S. gallolyticus", "assay": "MIC by broth microdilution", "format": "cell-based, Streptococcus gallolyticus", "settings": "S. gallolyticus (bovis), N=19", "method": "as §1, §2"}, "S. pyogenes": {"system": "S. pyogenes", "assay": "MIC by broth microdilution", "format": "cell-based, Streptococcus pyogenes", "settings": "S. pyogenes (group A), N=100", "method": "as §1, §2"}, "S. agalactiae": {"system": "S. agalactiae", "assay": "MIC by broth microdilution", "format": "cell-based, Streptococcus agalactiae", "settings": "S. agalactiae (group B), N=97", "method": "as §1, §2"}, "S. dysgalactiae": {"system": "S. dysgalactiae", "assay": "MIC by broth microdilution", "format": "cell-based, Streptococcus dysgalactiae", "settings": "S. dysgalactiae (group G), N=22", "method": "as §1, §2"}, "S. pneumoniae": {"system": "S. pneumoniae", "assay": "MIC by broth microdilution", "format": "cell-based, Streptococcus pneumoniae", "settings": "S. pneumoniae, N=59", "method": "as §1, §2"}, "E. faecalis": {"system": "E. faecalis", "assay": "MIC by broth microdilution", "format": "cell-based, Enterococcus faecalis", "settings": "E. faecalis (formerly group D), N=18", "method": "as §1, §2"}, "MRSA strain MW2": {"system": "MRSA strain MW2", "assay": "Infective endocarditis rabbit model, CF-301 in series with daptomycin (Example 2)", "format": "in vivo, rabbits", "settings": "daptomycin alone 4 mg/kg intravenously", "method": "The rational for selection of the daptomycin dose is as follows. Daptomycin pilot dose-response experiments were performed over a range from 1 mg/kg to 10 mg/kg, administered intravenously, once daily for 4 days in the infective endocarditis rabbit model described below, which was caused by the MRSA strain, MW2. FIG. 2 depicts data for individual animals, plotted as treatment regimen versus log10 CFU/g tissue (mean±SEM are shown). From these studies, a daptomycin dose-response was defined. […] In the rabbit infective endocarditis model, a daptomycin-alone dose of 4 mg/kg administered intravenously provided about 0.25 to 1.45 log10 reduction in bacterial burden compared to vehicle-treated controls.\nA well-described indwelling transcarotid artery-to-left ventricle catheter-induced model of aortic valve infective endocarditis was used in rabbits. See Xiong et al., 2011, AAC, 55:P5325-5330. At 48 hours after catheter placement, infective endocarditis was induced by intravenous inoculums of about 2×10^5 CFU (the induction of ID95 of MRSA strain MW2 in this model). […] Daptomycin administration was continued once a day for 4 days. At 24 hours after the last dose of daptomycin, animals were humanely euthanized and cardiac vegetations, kidneys, and spleens were sterilely removed and quantitatively cultured. Bacterial density for each organ for the different treatment groups were calculated as mean log10 CFU/g of tissue (±95% confidence interval)."}, "[1]": {"system": "MRSA strain MW2 (CA-MRSA; USA400)", "settings": "cited from earlier work"}},
  "data": [
    {"smiles": "CCCCCCCCCC(=O)N[C@@H](Cc1c[nH]c2ccccc12)C(=O)N[C@H](CC(N)=O)C(=O)N[C@@H](CC(=O)O)C(=O)N[C@@H]1C(=O)NCC(=O)N[C@@H](CCCN)C(=O)N[C@@H](CC(=O)O)C(=O)N[C@H](C)C(=O)N[C@@H](CC(=O)O)C(=O)NCC(=O)N[C@H](CO)C(=O)N[C@@H]([C@H](C)CC(=O)O)C(=O)N[C@@H](CC(=O)c2ccccc2N)C(=O)O[C@@H]1C", "note": "[DAP, Daptomycin]", "values": [
      {"measurement": "MIC Range", "setting": "S. lugdunensis", "result": "0.25 to 2", "unit": "µg/mL"},
      {"measurement": "MIC50", "setting": "S. lugdunensis; Staphylococcus lugdunensis, read-out: MIC50", "result": 0.5, "unit": "µg/mL"},
      {"measurement": "MIC90", "setting": "S. lugdunensis; Staphylococcus lugdunensis, read-out: MIC90", "result": 1, "unit": "µg/mL"},
      {"measurement": "MIC Range", "setting": "S. haemolyticus", "result": "0.25 to 2", "unit": "µg/mL"},
      {"measurement": "MIC50", "setting": "S. haemolyticus; Staphylococcus haemolyticus, read-out: MIC50", "result": 0.5, "unit": "µg/mL"},
      {"measurement": "MIC90", "setting": "S. haemolyticus; Staphylococcus haemolyticus, read-out: MIC90", "result": 1, "unit": "µg/mL"},
      {"measurement": "MIC Range", "setting": "S. capitis", "result": "0.25 to 1", "unit": "µg/mL"},
      {"measurement": "MIC50", "setting": "S. capitis; Staphylococcus capitis, read-out: MIC50", "result": 0.5, "unit": "µg/mL"},
      {"measurement": "MIC90", "setting": "S. capitis; Staphylococcus capitis, read-out: MIC90", "result": 1, "unit": "µg/mL"},
      {"measurement": "MIC Range", "setting": "S. warneri", "result": "0.25 to 2", "unit": "µg/mL"},
      {"measurement": "MIC50", "setting": "S. warneri; Staphylococcus warneri, read-out: MIC50", "result": 0.5, "unit": "µg/mL"},
      {"measurement": "MIC90", "setting": "S. warneri; Staphylococcus warneri, read-out: MIC90", "result": 2, "unit": "µg/mL"},
      {"measurement": "MIC Range", "setting": "S. gordonii", "result": "0.25 to 1", "unit": "µg/mL"},
      {"measurement": "MIC50", "setting": "S. gordonii; Streptococcus gordonii, read-out: MIC50", "result": 0.5, "unit": "µg/mL"},
      {"measurement": "MIC90", "setting": "S. gordonii; Streptococcus gordonii, read-out: MIC90", "result": 0.5, "unit": "µg/mL"},
      {"measurement": "MIC Range", "setting": "S. mutans", "result": "0.25 to 8", "unit": "µg/mL"},
      {"measurement": "MIC50", "setting": "S. mutans; Streptococcus mutans, read-out: MIC50", "result": 0.5, "unit": "µg/mL"},
      {"measurement": "MIC90", "setting": "S. mutans; Streptococcus mutans, read-out: MIC90", "result": 1, "unit": "µg/mL"},
      {"measurement": "MIC Range", "setting": "S. oralis", "result": "0.25 to 1", "unit": "µg/mL"},
      {"measurement": "MIC50", "setting": "S. oralis; Streptococcus oralis, read-out: MIC50", "result": 0.5, "unit": "µg/mL"},
      {"measurement": "MIC90", "setting": "S. oralis; Streptococcus oralis, read-out: MIC90", "result": 0.5, "unit": "µg/mL"},
      {"measurement": "MIC Range", "setting": "S. salivarius", "result": "0.06 to 0.5", "unit": "µg/mL"},
      {"measurement": "MIC50", "setting": "S. salivarius; Streptococcus salivarius, read-out: MIC50", "result": 0.25, "unit": "µg/mL"},
      {"measurement": "MIC90", "setting": "S. salivarius; Streptococcus salivarius, read-out: MIC90", "result": 0.5, "unit": "µg/mL"},
      {"measurement": "MIC Range", "setting": "S. sanguinis", "result": "0.06 to 1", "unit": "µg/mL"},
      {"measurement": "MIC50", "setting": "S. sanguinis; Streptococcus sanguinis, read-out: MIC50", "result": 0.25, "unit": "µg/mL"},
      {"measurement": "MIC90", "setting": "S. sanguinis; Streptococcus sanguinis, read-out: MIC90", "result": 1, "unit": "µg/mL"},
      {"measurement": "MIC Range", "setting": "S. gallolyticus", "result": "0.06 to 0.5", "unit": "µg/mL"},
      {"measurement": "MIC50", "setting": "S. gallolyticus; Streptococcus gallolyticus, read-out: MIC50", "result": 0.125, "unit": "µg/mL"},
      {"measurement": "MIC90", "setting": "S. gallolyticus; Streptococcus gallolyticus, read-out: MIC90", "result": 0.25, "unit": "µg/mL"},
      {"measurement": "MIC Range", "setting": "S. pyogenes", "result": "0.016 to 0.06", "unit": "µg/mL"},
      {"measurement": "MIC50", "setting": "S. pyogenes; Streptococcus pyogenes, read-out: MIC50", "result": 0.03, "unit": "µg/mL"},
      {"measurement": "MIC90", "setting": "S. pyogenes; Streptococcus pyogenes, read-out: MIC90", "result": 0.06, "unit": "µg/mL"},
      {"measurement": "MIC Range", "setting": "S. agalactiae", "result": "0.125 to 0.25", "unit": "µg/mL"},
      {"measurement": "MIC50", "setting": "S. agalactiae; Streptococcus agalactiae, read-out: MIC50", "result": 0.125, "unit": "µg/mL"},
      {"measurement": "MIC90", "setting": "S. agalactiae; Streptococcus agalactiae, read-out: MIC90", "result": 0.25, "unit": "µg/mL"},
      {"measurement": "MIC Range", "setting": "S. dysgalactiae", "result": "0.06 to 0.5", "unit": "µg/mL"},
      {"measurement": "MIC50", "setting": "S. dysgalactiae; Streptococcus dysgalactiae, read-out: MIC50", "result": 0.125, "unit": "µg/mL"},
      {"measurement": "MIC90", "setting": "S. dysgalactiae; Streptococcus dysgalactiae, read-out: MIC90", "result": 0.25, "unit": "µg/mL"},
      {"measurement": "MIC Range", "setting": "S. pneumoniae", "result": "0.06 to 0.25", "unit": "µg/mL"},
      {"measurement": "MIC50", "setting": "S. pneumoniae; Streptococcus pneumoniae, read-out: MIC50", "result": 0.125, "unit": "µg/mL"},
      {"measurement": "MIC90", "setting": "S. pneumoniae; Streptococcus pneumoniae, read-out: MIC90", "result": 0.5, "unit": "µg/mL"},
      {"measurement": "MIC Range", "setting": "E. faecalis", "result": "0.25 to 0.5", "unit": "µg/mL"},
      {"measurement": "MIC50", "setting": "E. faecalis; Enterococcus faecalis, read-out: MIC50", "result": 0.5, "unit": "µg/mL"},
      {"measurement": "MIC90", "setting": "E. faecalis; Enterococcus faecalis, read-out: MIC90", "result": 0.5, "unit": "µg/mL"},
      {"measurement": "bacterial burden remaining in treated animals", "setting": "MRSA strain MW2", "result": "5-7 log10"},
      {"measurement": "reduction in bacterial burden compared to vehicle-treated controls", "setting": "MRSA strain MW2; once daily for 4 days, pilot dose-response", "result": "0.25 to 1.45", "unit": "log10"},
      {"measurement": "MIC", "setting": "[1]", "result": 0.5, "unit": "µg/mL"}
    ]}
  ]
}
